# Data reported in patent publication US6518243B1, “Desleucyl glycopeptide antibiotics and methods of making same” (Trustees of Princeton University, priority 1999, dated 2003).
# System: E. faecalis (CL 4877)
# Assay: Zone of inhibition screen, 96 well agar array format
# Type: cell-based
# Design: scale not given here
# Settings: zone of inhibition relative to 1 mg/ml stock solution of p-chlorobiphenylvancomycin
# Protocol: The antibacterial activity of each of the compounds against the bacterial strains E. faceium (ATCC 49624), S. epidermidis (ATCC 12228), S. aureus (ATCC 29213), E. faecalis (CL 4877) and E. faecalis (ATCC 292121) was tested. Each of the compounds was screened in a 96 will agar array format.
row,SMILES,"zone score, E. faecalis CL 4877"
1,CC1OC(OC2C(Oc3c4cc5cc3Oc3ccc(cc3Cl)C(O)C3NC(=O)C(NC(=O)C5NC(=O)C(CC(N)=O)NC(=O)C(NC(=O)C(O)CN)C(O)c5ccc(c(Cl)c5)O4)c4ccc(O)c(c4)-c4c(O)cc(O)cc4C(C(=O)O)NC3=O)OC(CO)C(O)C2O)CC(C)(NCc2ccc(-c3ccc(Cl)cc3)cc2)C1O (mixture of isomers) [Compound 60],2
2,CC(=O)NCCCCC(NC(C)=O)C(=O)NC1C(=O)NC(CC(N)=O)C(=O)NC2C(=O)NC3C(=O)NC(C(=O)NC(C(=O)O)c4cc(O)cc(O)c4-c4cc3ccc4O)C(O)c3ccc(c(Cl)c3)Oc3cc2cc(c3OC2OC(CO)C(O)C(O)C2OC2CC(C)(NCc3ccc(-c4ccc(Cl)cc4)cc3)C(O)C(C)O2)Oc2ccc(cc2Cl)C1O (mixture of isomers) [Compound 114],2
3,CC1OC(OC2C(Oc3c4cc5cc3Oc3ccc(cc3Cl)C(O)C(NC(=O)C3OC(O)C(O)C(O)C3O)C(=O)NC(CC(N)=O)C(=O)NC5C(=O)NC3C(=O)NC(C(=O)NC(C(=O)O)c5cc(O)cc(O)c5-c5cc3ccc5O)C(O)c3ccc(c(Cl)c3)O4)OC(CO)C(O)C2O)CC(C)(NCc2ccc(-c3ccc(Cl)cc3)cc2)C1O (mixture of isomers) [Compound 147],2
4,CC1OC(OC2C(Oc3c4cc5cc3Oc3ccc(cc3Cl)C(O)C(NC(=O)C3OC(O)C(O)C(O)C3O)C(=O)NC(CC(N)=O)C(=O)NC5C(=O)NC3C(=O)NC(C(=O)NC(C(=O)O)c5cc(O)cc(O)c5-c5cc3ccc5O)C(O)c3ccc(c(Cl)c3)O4)OC(CO)C(O)C2O)CC(C)(NCc2ccc(-c3ccc(Cl)cc3)cc2)C1O (mixture of isomers) [Compound 148],2
5,CC1OC(OC2C(Oc3c4cc5cc3Oc3ccc(cc3Cl)C(O)C3NC(=O)C(NC(=O)C5NC(=O)C(CC(N)=O)NC(=O)C(NC(=O)C(O)CO)C(O)c5ccc(c(Cl)c5)O4)c4ccc(O)c(c4)-c4c(O)cc(O)cc4C(C(=O)O)NC3=O)OC(CO)C(O)C2O)CC(C)(NCc2ccc(-c3ccc(Cl)cc3)cc2)C1O (mixture of isomers) [Compound 152],2
6,CC(=O)NC(C)C(=O)NC1C(=O)NC(CC(N)=O)C(=O)NC2C(=O)NC3C(=O)NC(C(=O)NC(C(=O)O)c4cc(O)cc(O)c4-c4cc3ccc4O)C(O)c3ccc(c(Cl)c3)Oc3cc2cc(c3OC2OC(CO)C(O)C(O)C2OC2CC(C)(NCc3ccc(-c4ccc(Cl)cc4)cc3)C(O)C(C)O2)Oc2ccc(cc2Cl)C1O (mixture of isomers) [Compound 174],2
7,CC(=O)NC(CO)C(=O)NC1C(=O)NC(CC(N)=O)C(=O)NC2C(=O)NC3C(=O)NC(C(=O)NC(C(=O)O)c4cc(O)cc(O)c4-c4cc3ccc4O)C(O)c3ccc(c(Cl)c3)Oc3cc2cc(c3OC2OC(CO)C(O)C(O)C2OC2CC(C)(NCc3ccc(-c4ccc(Cl)cc4)cc3)C(O)C(C)O2)Oc2ccc(cc2Cl)C1O (mixture of isomers) [Compound 178],2
8,C[C@H]1O[C@H](O[C@H]2[C@H](Oc3c4cc5cc3Oc3ccc(cc3Cl)[C@@H](O)[C@@H](NC(=O)[C@@H](N)CC(=O)NC(c3ccccc3)(c3ccccc3)c3ccccc3)C(=O)N[C@@H](CC(N)=O)C(=O)N[C@H]5C(=O)N[C@H]3C(=O)N[C@H](C(=O)N[C@@H](C(=O)O)c5cc(O)cc(O)c5-c5cc3ccc5O)[C@H](O)c3ccc(c(Cl)c3)O4)O[C@H](CO)[C@@H](O)[C@@H]2O)C[C@@](C)(NCc2ccc(-c3ccc(Cl)cc3)cc2)[C@H]1O [Compound 2],2
9,COc1ccc(C(SC[C@H](N)C(=O)N[C@H]2C(=O)N[C@@H](CC(N)=O)C(=O)N[C@H]3C(=O)N[C@H]4C(=O)N[C@H](C(=O)N[C@@H](C(=O)O)c5cc(O)cc(O)c5-c5cc4ccc5O)[C@H](O)c4ccc(c(Cl)c4)Oc4cc3cc(c4O[C@@H]3O[C@H](CO)[C@@H](O)[C@H](O)[C@H]3O[C@@H]3C[C@@](C)(NCc4ccc(-c5ccc(Cl)cc5)cc4)[C@@H](O)[C@@H](C)O3)Oc3ccc(cc3Cl)[C@H]2O)(c2ccccc2)c2ccccc2)cc1 [Compound 6],2
10,CC(OC(c1ccccc1)(c1ccccc1)c1ccccc1)[C@H](N)C(=O)N[C@H]1C(=O)N[C@@H](CC(N)=O)C(=O)N[C@H]2C(=O)N[C@H]3C(=O)N[C@H](C(=O)N[C@@H](C(=O)O)c4cc(O)cc(O)c4-c4cc3ccc4O)[C@H](O)c3ccc(c(Cl)c3)Oc3cc2cc(c3O[C@@H]2O[C@H](CO)[C@@H](O)[C@H](O)[C@H]2O[C@@H]2C[C@@](C)(NCc3ccc(-c4ccc(Cl)cc4)cc3)[C@@H](O)[C@@H](C)O2)Oc2ccc(cc2Cl)[C@H]1O (stereo partly drawn) [Compound 11],2
11,C[C@H]1O[C@H](O[C@H]2[C@H](Oc3c4cc5cc3Oc3ccc(cc3Cl)[C@@H](O)[C@@H](NC(=O)[C@H](N)CSC(c3ccccc3)(c3ccccc3)c3ccccc3)C(=O)N[C@@H](CC(N)=O)C(=O)N[C@H]5C(=O)N[C@H]3C(=O)N[C@H](C(=O)N[C@@H](C(=O)O)c5cc(O)cc(O)c5-c5cc3ccc5O)[C@H](O)c3ccc(c(Cl)c3)O4)O[C@H](CO)[C@@H](O)[C@@H]2O)C[C@@](C)(NCc2ccc(-c3ccc(Cl)cc3)cc2)[C@H]1O [Compound 14],2
12,Cc1ccc(C(NCCCCC(N)C(=O)NC2C(=O)NC(CC(N)=O)C(=O)NC3C(=O)NC4C(=O)NC(C(=O)NC(C(=O)O)c5cc(O)cc(O)c5-c5cc4ccc5O)C(O)c4ccc(c(Cl)c4)Oc4cc3cc(c4OC3OC(CO)C(O)C(O)C3OC3CC(C)(NCc4ccc(-c5ccc(Cl)cc5)cc4)C(O)C(C)O3)Oc3ccc(cc3Cl)C2O)(c2ccccc2)c2ccccc2)cc1 (stereo not drawn) [Compound 40],2
13,CC(=O)NCSC(C)(C)C(N)C(=O)NC1C(=O)NC(CC(N)=O)C(=O)NC2C(=O)NC3C(=O)NC(C(=O)NC(C(=O)O)c4cc(O)cc(O)c4-c4cc3ccc4O)C(O)c3ccc(c(Cl)c3)Oc3cc2cc(c3OC2OC(CO)C(O)C(O)C2OC2CC(C)(NCc3ccc(-c4ccc(Cl)cc4)cc3)C(O)C(C)O2)Oc2ccc(cc2Cl)C1O (stereo not drawn) [Compound 46],2
14,CC(N)C(=O)NC1C(=O)NC(CC(N)=O)C(=O)NC2C(=O)NC3C(=O)NC(C(=O)NC(C(=O)O)c4cc(O)cc(O)c4-c4cc3ccc4O)C(O)c3ccc(c(Cl)c3)Oc3cc2cc(c3OC2OC(CO)C(O)C(O)C2OC2CC(C)(NCc3ccc(-c4ccc(Cl)cc4)cc3)C(O)C(C)O2)Oc2ccc(cc2Cl)C1O (stereo not drawn) [Compound 51],2
15,CC(=O)NCSCC(N)C(=O)NC1C(=O)NC(CC(N)=O)C(=O)NC2C(=O)NC3C(=O)NC(C(=O)NC(C(=O)O)c4cc(O)cc(O)c4-c4cc3ccc4O)C(O)c3ccc(c(Cl)c3)Oc3cc2cc(c3OC2OC(CO)C(O)C(O)C2OC2CC(C)(NCc3ccc(-c4ccc(Cl)cc4)cc3)C(O)C(C)O2)Oc2ccc(cc2Cl)C1O (stereo not drawn) [Compound 55],2
16,CC1OC(OC2C(Oc3c4cc5cc3Oc3ccc(cc3Cl)C(O)C3NC(=O)C(NC(=O)C5NC(=O)C(CC(N)=O)NC(=O)C(NC(=O)C(N)Cc5c[nH]cn5)C(O)c5ccc(c(Cl)c5)O4)c4ccc(O)c(c4)-c4c(O)cc(O)cc4C(C(=O)O)NC3=O)OC(CO)C(O)C2O)CC(C)(NCc2ccc(-c3ccc(Cl)cc3)cc2)C1O (stereo not drawn) [Compound 58],2
17,CC1OC(OC2C(Oc3c4cc5cc3Oc3ccc(cc3Cl)C(O)C(NC(=O)C3CCC(O)N3C(=O)C3CCCN3C(=O)CN)C(=O)NC(CC(N)=O)C(=O)NC5C(=O)NC3C(=O)NC(C(=O)NC(C(=O)O)c5cc(O)cc(O)c5-c5cc3ccc5O)C(O)c3ccc(c(Cl)c3)O4)OC(CO)C(O)C2O)CC(C)(NCc2ccc(-c3ccc(Cl)cc3)cc2)C1O (stereo not drawn) [Compound 69],2
18,CC(C)C(NC(=O)CN)C(=O)NC1C(=O)NC(CC(N)=O)C(=O)NC2C(=O)NC3C(=O)NC(C(=O)NC(C(=O)O)c4cc(O)cc(O)c4-c4cc3ccc4O)C(O)c3ccc(c(Cl)c3)Oc3cc2cc(c3OC2OC(CO)C(O)C(O)C2OC2CC(C)(NCc3ccc(-c4ccc(Cl)cc4)cc3)C(O)C(C)O2)Oc2ccc(cc2Cl)C1O (stereo not drawn) [Compound 70],2
19,CC1OC(OC2C(Oc3c4cc5cc3Oc3ccc(cc3Cl)C(O)C3NC(=O)C(NC(=O)C5NC(=O)C(CC(N)=O)NC(=O)C(NC(=O)C(N)Cc5c[nH]cn5)C(O)c5ccc(c(Cl)c5)O4)c4ccc(O)c(c4)-c4c(O)cc(O)cc4C(C(=O)O)NC3=O)OC(CO)C(O)C2O)CC(C)(NCc2ccc(-c3ccc(Cl)cc3)cc2)C1O (stereo not drawn) [Compound 71],2
20,C=CCOC(=O)NCC(N)C(=O)NC1C(=O)NC(CC(N)=O)C(=O)NC2C(=O)NC3C(=O)NC(C(=O)NC(C(=O)O)c4cc(O)cc(O)c4-c4cc3ccc4O)C(O)c3ccc(c(Cl)c3)Oc3cc2cc(c3OC2OC(CO)C(O)C(O)C2OC2CC(C)(NCc3ccc(-c4ccc(Cl)cc4)cc3)C(O)C(C)O2)Oc2ccc(cc2Cl)C1O (stereo not drawn) [Compound 92],2
21,CC1OC(OC2C(Oc3c4cc5cc3Oc3ccc(cc3Cl)C(O)C3NC(=O)C(NC(=O)C5NC(=O)C(CC(N)=O)NC(=O)C(NC(=O)C5CC(=O)N5)C(O)c5ccc(c(Cl)c5)O4)c4ccc(O)c(c4)-c4c(O)cc(O)cc4C(C(=O)O)NC3=O)OC(CO)C(O)C2O)CC(C)(NCc2ccc(-c3ccc(Cl)cc3)cc2)C1O (stereo not drawn) [Compound 96],2
22,COCCOCCOCC(=O)NC1C(=O)NC(CC(N)=O)C(=O)NC2C(=O)NC3C(=O)NC(C(=O)NC(C(=O)O)c4cc(O)cc(O)c4-c4cc3ccc4O)C(O)c3ccc(c(Cl)c3)Oc3cc2cc(c3OC2OC(CO)C(O)C(O)C2OC2CC(C)(NCc3ccc(-c4ccc(Cl)cc4)cc3)C(O)C(C)O2)Oc2ccc(cc2Cl)C1O (stereo not drawn) [Compound 101],2
23,C=C(NC(C)=O)C(=O)NC1C(=O)NC(CC(N)=O)C(=O)NC2C(=O)NC3C(=O)NC(C(=O)NC(C(=O)O)c4cc(O)cc(O)c4-c4cc3ccc4O)C(O)c3ccc(c(Cl)c3)Oc3cc2cc(c3OC2OC(CO)C(O)C(O)C2OC2CC(C)(NCc3ccc(-c4ccc(Cl)cc4)cc3)C(O)C(C)O2)Oc2ccc(cc2Cl)C1O (stereo not drawn) [Compound 102],2
24,CC1OC(OC2C(Oc3c4cc5cc3Oc3ccc(cc3Cl)C(O)C3NC(=O)C(NC(=O)C5NC(=O)C(CC(N)=O)NC(=O)C(NC(=O)c5cnccn5)C(O)c5ccc(c(Cl)c5)O4)c4ccc(O)c(c4)-c4c(O)cc(O)cc4C(C(=O)O)NC3=O)OC(CO)C(O)C2O)CC(C)(NCc2ccc(-c3ccc(Cl)cc3)cc2)C1O (stereo not drawn) [Compound 103],2
